Assay results published in US20250353891A1 (MEDIMMUNE LIMITED, priority 2022, published 2025).
Starred links: 1 amine or outer side, 2 acyl side, 3 side chain; linkers in the order of their positions; H or OH if unused. Non-standard residues stand in square brackets, D forms with d. Residues, ends and D or L forms follow the SMILES beside them. Groups on a side chain read outwards from the residue. *: point of attachment. C20 diacid = O=C(O)CCCCCCCCCCCCCCCCCCC(=O)*; C18 diacid = O=C(O)CCCCCCCCCCCCCCCCC(=O)*; γGlu = O=C(O)[C@H](CCC(=O)[*:2])N[*:1]; αMeF = C[C@](N)(Cc1ccccc1)C(=O)O; AEEA = NCCOCCOCC(=O)O; Aib = CC(C)(N)C(=O)O

Legend:
[1] = target: human GLP-1 receptor (hGLP-1R) (Homo sapiens, UniProt P43220); assay: cAMP production (HTRF) in CHO cells expressing hGLP-1R; format: cell-based; parameters: expressed in transfected cells; details: for EC50: Table 7, peptides modified at position 20, cAMP in CHO hGLP-1R cells, geometric mean, read-out: hGLP-1R EC50; for % Relative Potency Ratio: Table 7, % GLP-1R activity relative to GLP-1 / % GlucR activity relative to glucagon
Chain of human GLP-1 receptor (hGLP-1R) (P43220 24-463): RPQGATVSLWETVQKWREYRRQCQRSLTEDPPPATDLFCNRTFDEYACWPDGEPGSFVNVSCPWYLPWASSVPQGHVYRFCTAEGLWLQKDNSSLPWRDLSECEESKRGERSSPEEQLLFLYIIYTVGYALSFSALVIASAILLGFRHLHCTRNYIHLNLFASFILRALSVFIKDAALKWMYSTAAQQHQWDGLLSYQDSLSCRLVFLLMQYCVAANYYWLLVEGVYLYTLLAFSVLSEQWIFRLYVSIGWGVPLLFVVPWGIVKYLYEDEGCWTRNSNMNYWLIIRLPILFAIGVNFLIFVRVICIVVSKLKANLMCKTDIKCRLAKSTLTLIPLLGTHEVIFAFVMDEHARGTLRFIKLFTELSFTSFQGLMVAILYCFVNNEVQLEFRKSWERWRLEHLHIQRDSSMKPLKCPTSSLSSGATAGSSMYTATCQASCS
Method in brief: (§1)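 Cells were resuspended in assay buffer at batch-optimized density, typically 1×10^5 cells/mL for hGLP-1R and 2×10^5 cells/mL for hGCGR. After 30 min incubation at room temperature with compound, cAMP was measured by two-step HTRF. EC50 values came from 4-parameter logistic fits of % Delta F.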

[2] = target: human glucagon receptor (hGCGR) (Homo sapiens, UniProt P47871); assay: cAMP production (HTRF) in CHO cells expressing hGCGR; format: cell-based; parameters: expressed in transfected cells; details: Table 7, peptides modified at position 20; cAMP in CHO hGCGR cells; geometric mean; read-out: hGluc-R EC50
Chain of human glucagon receptor (hGCGR) (P47871 26-477): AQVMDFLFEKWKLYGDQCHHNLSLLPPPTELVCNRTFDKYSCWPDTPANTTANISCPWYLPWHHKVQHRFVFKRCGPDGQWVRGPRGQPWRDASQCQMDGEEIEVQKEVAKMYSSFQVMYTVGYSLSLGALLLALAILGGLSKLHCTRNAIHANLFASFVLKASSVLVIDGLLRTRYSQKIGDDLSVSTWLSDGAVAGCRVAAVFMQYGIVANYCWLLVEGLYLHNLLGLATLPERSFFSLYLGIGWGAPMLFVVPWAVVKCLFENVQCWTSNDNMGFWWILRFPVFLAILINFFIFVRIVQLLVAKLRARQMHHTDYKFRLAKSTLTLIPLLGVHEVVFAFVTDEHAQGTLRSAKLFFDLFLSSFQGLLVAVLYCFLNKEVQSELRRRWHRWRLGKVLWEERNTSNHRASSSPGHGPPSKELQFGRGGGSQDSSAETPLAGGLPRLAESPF
Method in brief: as §1

SMILES	EC50 [1]	% Relative Potency Ratio [1]	EC50 [2]
CC[C@H](C)[C@H](NC(=O)C(C)(C)NC(=O)[C@H](CCC(N)=O)NC(=O)[C@@H](NC(=O)[C@](C)(Cc1ccccc1)NC(=O)[C@H](CC(=O)O)NC(=O)[C@H](CCCCNC(=O)COCCOCCNC(=O)COCCOCCNC(=O)CC[C@H](NC(=O)CCCCCCCCCCCCCCCCC(=O)O)C(=O)O)NC(=O)[C@H](C)NC(=O)[C@H](C)NC(=O)[C@H](CCCNC(=N)N)NC(=O)[C@H](CO)NC(=O)[C@H](CC(=O)O)NC(=O)[C@H](CC(C)C)NC(=O)[C@H](Cc1ccc(O)cc1)NC(=O)[C@H](CCCCN)NC(=O)[C@H](CO)NC(=O)[C@@H](NC(=O)[C@H](CC(=O)O)NC(=O)[C@H](CO)NC(=O)[C@@H](NC(=O)[C@](C)(Cc1ccccc1)NC(=O)[C@H](CO)NC(=O)CNC(=O)[C@H](Cc1c[nH]cn1)NC(=O)C(C)(C)NC(=O)[C@@H](N)Cc1c[nH]cn1)[C@@H](C)O)C(C)C)C(C)C)C(=O)N[C@@H](C)C(=O)N[C@@H](CC(N)=O)C(=O)N[C@H](C(N)=O)[C@@H](C)O [Peptide 286] (H-H[Aib]HGS[αMeF]TSDVSKYLDSRAAK([AEEA-AEEA-γGlu-C18 diacid])D[αMeF]VQ[Aib]IANT-NH2; N-terminus assumed)	0.0316 nM	3.3	0.053 nM
CC[C@H](C)[C@H](NC(=O)[C@H](Cc1c[nH]c2ccccc12)NC(=O)[C@H](CCC(N)=O)NC(=O)[C@@H](NC(=O)[C@](C)(Cc1ccccc1)NC(=O)[C@H](CC(=O)O)NC(=O)[C@H](CCCCNC(=O)COCCOCCNC(=O)COCCOCCNC(=O)CC[C@H](NC(=O)CCCCCCCCCCCCCCCCC(=O)O)C(=O)O)NC(=O)[C@H](C)NC(=O)[C@H](C)NC(=O)[C@H](CCCNC(=N)N)NC(=O)[C@H](CO)NC(=O)[C@H](CC(=O)O)NC(=O)[C@H](CC(C)C)NC(=O)[C@](C)(Cc1ccccc1)NC(=O)[C@H](CCCCN)NC(=O)[C@H](CO)NC(=O)[C@@H](NC(=O)[C@H](CC(=O)O)NC(=O)[C@H](CO)NC(=O)[C@@H](NC(=O)[C@](C)(Cc1ccccc1)NC(=O)[C@H](CO)NC(=O)CNC(=O)[C@H](Cc1c[nH]cn1)NC(=O)C(C)(C)NC(=O)[C@@H](N)Cc1c[nH]cn1)[C@@H](C)O)C(C)C)C(C)C)C(=O)N[C@@H](C)C(=O)N[C@@H](CC(N)=O)C(=O)N[C@H](C(N)=O)[C@@H](C)O [Peptide 288] (H-H[Aib]HGS[αMeF]TSDVSK[αMeF]LDSRAAK([AEEA-AEEA-γGlu-C18 diacid])D[αMeF]VQWIANT-NH2)	0.0427 nM	1.2	0.0269 nM
CC[C@H](C)[C@H](NC(=O)[C@H](Cc1c[nH]c2ccccc12)NC(=O)[C@H](CCC(N)=O)NC(=O)[C@@H](NC(=O)[C@](C)(Cc1ccccc1)NC(=O)[C@H](CC(=O)O)NC(=O)[C@H](CCCCNC(=O)COCCOCCNC(=O)COCCOCCNC(=O)CC[C@H](NC(=O)CC[C@H](NC(=O)CCCCCCCCCCCCCCCCCCC(=O)O)C(=O)O)C(=O)O)NC(=O)[C@H](C)NC(=O)[C@H](C)NC(=O)[C@H](CCCNC(=N)N)NC(=O)[C@H](CO)NC(=O)[C@H](CC(=O)O)NC(=O)[C@H](CC(C)C)NC(=O)[C@H](Cc1ccc(O)cc1)NC(=O)[C@H](CCCCN)NC(=O)[C@H](CO)NC(=O)[C@@H](NC(=O)[C@H](CC(=O)O)NC(=O)[C@H](CO)NC(=O)[C@@H](NC(=O)[C@H](Cc1ccccc1)NC(=O)[C@H](CO)NC(=O)CNC(=O)[C@H](Cc1c[nH]cn1)NC(=O)C(C)(C)NC(=O)[C@@H](N)Cc1c[nH]cn1)[C@@H](C)O)C(C)C)C(C)C)C(=O)N[C@@H](C)C(=O)N[C@@H](CC(N)=O)C(=O)N[C@H](C(N)=O)[C@@H](C)O [Peptide 291] (H-H[Aib]HGSFTSDVSKYLDSRAAK([AEEA-AEEA-γGlu-γGlu-C20 diacid])D[αMeF]VQWIANT-NH2)	1.51 nM	1.1	0.847 nM
CC[C@H](C)[C@H](NC(=O)[C@H](Cc1c[nH]c2ccccc12)NC(=O)[C@H](CCC(N)=O)NC(=O)[C@@H](NC(=O)[C@H](Cc1ccccc1)NC(=O)[C@H](CC(=O)O)NC(=O)[C@H](CCCCNC(=O)COCCOCCNC(=O)COCCOCCNC(=O)CC[C@H](NC(=O)CCCCCCCCCCCCCCCCC(=O)O)C(=O)O)NC(=O)[C@H](C)NC(=O)[C@H](C)NC(=O)[C@H](CCCNC(=N)N)NC(=O)[C@H](CO)NC(=O)[C@H](CC(=O)O)NC(=O)[C@H](CC(C)C)NC(=O)[C@H](Cc1ccc(O)cc1)NC(=O)[C@H](CCCCN)NC(=O)[C@H](CO)NC(=O)[C@@H](NC(=O)[C@H](CC(=O)O)NC(=O)[C@H](CO)NC(=O)[C@@H](NC(=O)[C@](C)(Cc1ccccc1)NC(=O)[C@H](CO)NC(=O)CNC(=O)[C@H](Cc1c[nH]cn1)NC(=O)C(C)(C)NC(=O)[C@@H](N)Cc1c[nH]cn1)[C@@H](C)O)C(C)C)C(C)C)C(=O)N[C@@H](C)C(=O)N[C@@H](CC(N)=O)C(=O)N[C@H](C(N)=O)[C@@H](C)O [Peptide 292] (H-H[Aib]HGS[αMeF]TSDVSKYLDSRAAK([AEEA-AEEA-γGlu-C18 diacid])DFVQWIANT-NH2)	0.0287 nM	1.4	0.0204 nM
CC[C@H](C)[C@H](NC(=O)[C@H](Cc1c[nH]c2ccccc12)NC(=O)[C@H](CCC(N)=O)NC(=O)[C@@H](NC(=O)[C@H](Cc1ccccc1)NC(=O)[C@H](CC(=O)O)NC(=O)[C@H](CCCCNC(=O)COCCOCCNC(=O)COCCOCCNC(=O)CC[C@H](NC(=O)CCCCCCCCCCCCCCCCC(=O)O)C(=O)O)NC(=O)[C@H](C)NC(=O)[C@H](C)NC(=O)[C@H](CCCNC(=N)N)NC(=O)[C@H](CO)NC(=O)[C@H](CC(=O)O)NC(=O)[C@H](CC(C)C)NC(=O)[C@](C)(Cc1ccccc1)NC(=O)[C@H](CCCCN)NC(=O)[C@H](CO)NC(=O)[C@@H](NC(=O)[C@H](CC(=O)O)NC(=O)[C@H](CO)NC(=O)[C@@H](NC(=O)[C@H](Cc1ccccc1)NC(=O)[C@H](CO)NC(=O)CNC(=O)[C@H](Cc1c[nH]cn1)NC(=O)C(C)(C)NC(=O)[C@@H](N)Cc1c[nH]cn1)[C@@H](C)O)C(C)C)C(C)C)C(=O)N[C@@H](C)C(=O)N[C@@H](CC(N)=O)C(=O)N[C@H](C(N)=O)[C@@H](C)O [Peptide 293] (H-H[Aib]HGSFTSDVSK[αMeF]LDSRAAK([AEEA-AEEA-γGlu-C18 diacid])DFVQWIANT-NH2)	0.092 nM	0.7	0.0335 nM
CC[C@H](C)[C@H](NC(=O)[C@H](Cc1c[nH]c2ccccc12)NC(=O)[C@H](CCC(N)=O)NC(=O)[C@@H](NC(=O)[C@](C)(Cc1ccccc1)NC(=O)[C@H](CC(=O)O)NC(=O)[C@H](CCCCNC(=O)COCCOCCNC(=O)COCCOCCNC(=O)CC[C@H](NC(=O)CCCCCCCCCCCCCCCCC(=O)O)C(=O)O)NC(=O)[C@H](C)NC(=O)[C@H](C)NC(=O)[C@H](CCCNC(=N)N)NC(=O)[C@H](CO)NC(=O)[C@H](CC(=O)O)NC(=O)[C@H](CC(C)C)NC(=O)[C@H](Cc1ccc(O)cc1)NC(=O)[C@H](CCCCN)NC(=O)[C@H](CO)NC(=O)[C@@H](NC(=O)[C@H](CC(=O)O)NC(=O)[C@H](CO)NC(=O)[C@@H](NC(=O)[C@H](Cc1ccccc1)NC(=O)[C@H](CO)NC(=O)CNC(=O)[C@H](Cc1c[nH]cn1)NC(=O)C(C)(C)NC(=O)[C@@H](N)Cc1c[nH]cn1)[C@@H](C)O)C(C)C)C(C)C)C(=O)N[C@@H](C)C(=O)N[C@@H](CC(N)=O)C(=O)N[C@H](C(N)=O)[C@@H](C)O [Peptide 294] (H-H[Aib]HGSFTSDVSKYLDSRAAK([AEEA-AEEA-γGlu-C18 diacid])D[αMeF]VQWIANT-NH2)	0.51 nM	0.4	0.102 nM
CC[C@H](C)[C@H](NC(=O)C(C)(C)NC(=O)[C@H](CCC(N)=O)NC(=O)[C@@H](NC(=O)[C@](C)(Cc1ccccc1)NC(=O)[C@H](CC(=O)O)NC(=O)[C@H](CCCCNC(=O)COCCOCCNC(=O)COCCOCCNC(=O)CC[C@H](NC(=O)CC[C@H](NC(=O)CCCCCCCCCCCCCCCCCCC(=O)O)C(=O)O)C(=O)O)NC(=O)[C@H](C)NC(=O)[C@H](C)NC(=O)[C@H](CCCNC(=N)N)NC(=O)[C@H](CO)NC(=O)[C@H](CC(=O)O)NC(=O)[C@H](CC(C)C)NC(=O)C(C)(C)NC(=O)[C@H](CCCCN)NC(=O)[C@H](CO)NC(=O)[C@@H](NC(=O)[C@H](CC(=O)O)NC(=O)[C@H](CO)NC(=O)[C@@H](NC(=O)[C@](C)(Cc1ccccc1)NC(=O)[C@H](CO)NC(=O)CNC(=O)[C@H](Cc1c[nH]cn1)NC(=O)C(C)(C)NC(=O)[C@@H](N)Cc1c[nH]cn1)[C@@H](C)O)C(C)C)C(C)C)C(=O)N[C@@H](C)C(=O)N[C@@H](CC(N)=O)C(=O)N[C@H](C(N)=O)[C@@H](C)O [Peptide 295] (H-H[Aib]HGS[αMeF]TSDVSK[Aib]LDSRAAK([AEEA-AEEA-γGlu-γGlu-C20 diacid])D[αMeF]VQ[Aib]IANT-NH2)	0.312 nM	108.2	17.1 nM
CC[C@H](C)[C@H](NC(=O)C(C)(C)NC(=O)[C@H](CCC(N)=O)NC(=O)[C@@H](NC(=O)[C@](C)(Cc1ccccc1)NC(=O)[C@H](CC(=O)O)NC(=O)[C@H](CCCCNC(=O)COCCOCCNC(=O)COCCOCCNC(=O)CC[C@H](NC(=O)CCCCCCCCCCCCCCCCC(=O)O)C(=O)O)NC(=O)[C@H](C)NC(=O)[C@H](C)NC(=O)[C@H](CCCNC(=N)N)NC(=O)[C@H](CO)NC(=O)[C@H](CC(=O)O)NC(=O)[C@H](CC(C)C)NC(=O)C(C)(C)NC(=O)[C@H](CCCCN)NC(=O)[C@H](CO)NC(=O)[C@@H](NC(=O)[C@H](CC(=O)O)NC(=O)[C@H](CO)NC(=O)[C@@H](NC(=O)[C@](C)(Cc1ccccc1)NC(=O)[C@H](CO)NC(=O)CNC(=O)[C@H](Cc1c[nH]cn1)NC(=O)C(C)(C)NC(=O)[C@@H](N)Cc1c[nH]cn1)[C@@H](C)O)C(C)C)C(C)C)C(=O)N[C@@H](C)C(=O)N[C@@H](CC(N)=O)C(=O)N[C@H](C(N)=O)[C@@H](C)O [Peptide 296] (H-H[Aib]HGS[αMeF]TSDVSK[Aib]LDSRAAK([AEEA-AEEA-γGlu-C18 diacid])D[αMeF]VQ[Aib]IANT-NH2)	0.0641 nM	100.3	3.25 nM
